Several values for one entry are separate records, joined by “and”; a condition that tells them apart may be missing. Equal values may be shown once. Entries after “also recorded” stand apart in the source; their conditions may differ. Read-outs that look alike come from different tables or passages of the source.
Columns and labels:
[1] = tested on: subcutaneous rat implant model; assay: Subcutaneous rat implant model, collagen/GFm sponges supplemented with calcium phosphates (Example 3/5); type: in vivo; conditions: for Average Mineral Mass / Average Explant Mass / Average Histology Score [0-5]: inter-animal average; for Average Mineral Mass: ash weight; for Average Explant Mass: collagen 7 mg + GFm 10 μg, additive 7 mg (50 wt. %); for Average Histology Score [0-5] / Histology score, Direct Comparison Averages [0-5]: scoring of Table 7; for Explant mass, Direct Comparison Averages / Mineral mass, Direct Comparison Average / Histology score, Direct Comparison Averages [0-5]: intra-animal comparison subset; for bone quality and maturity in histological sections: photomicrographs FIG. 15, H&E/Von Kossa, toluidine blue; for Explant mass, Direct Comparison Δwt. % / Histology score, Direct Comparison [%] / Mineral mass, Direct Comparison Δwt. %: relative to intra-animal collagen/GFm control; for effect on explant and mineral mass: versus collagen controls / other compositions
Procedure: The advantages of the rat model for product evaluation include an accelerated rate of bone induction. Visible evidence of mineralization appears in the implant within several days (˜10), with typical experiments lasting between 14 and 21 days. The testing protocol involved implantation of porous collagen (bovine tendon Type 1, 7 mg, 96 vol. % porosity) samples containing a natural mixture of bovine, osteoinductive proteins (GFm, 10 μg). […] Samples were implanted in four subcutaneous sites including the upper quadrants of the abdomen (sites 1, 2) and the upper quadrants of the dorsal thorax (sites 6, 7). The osteoinductive differences between controls and calcium phosphate supplemented samples [7 mg, 50 wt. %] were assessed using three standard test protocols: histological tissue analysis and mineral composition via x-ray and ash weight analysis (Intermedics Orthopedics/Denver, Inc. Histology protocol STM 009; Intermedics Orthopedics/Denver, Inc. Alkaline phophatase protocol STM 0024, 0026).
Samples were assessed in comparison to two different control sample populations, including: collagen sponges and collagen/GFm sponges supplemented with 50 wt % devitalized bone matrix (DVBM) additives. The collagen/GFm control samples were used as a reference for a baseline osteoinductive response. A calcium phosphate additive was considered detrimental if it either reduced the explant or mineral mass values or if it negatively influenced bone maturation. […] These samples were prepared as an alternative for demineralized bone matrix (DBM) additives. Demineralized bone matrix provides both an ideal osteoconductive matrix for cellular invasion and bone mineralization and a pooled concentration of osteoinductive proteins.
ANOVA was performed without data replications turning the analysis into an expanded pool Student-T test. Statistical significance was predicted using α<0.05. […] Compositions that had no significant influence on mass are indicated in plain text. Compositions that stimulated a statistically significant improvement in mass are indicated in bold text [Tables 5 and 6].
The quality and skeletal maturity of produced bone was assessed through histological microscopic analysis of thin, stained tissue sections. […] Thin sections (4 μm) from the explant midlines were obtained with a microtome. One section was stained with hematoxylin & eosin (H&E) and one was stained with toluidine blue to highlight important cellular details. The H&E sections were counterstained with silver nitrate (Von Kossa technique) to highlight mineralized tissue components. The histological sections were scored for quality and maturity using a scoring system, outlined in Table 7, previously developed by Sulzer Biologics according to STM-021. […]

[2] = Equilibrium solubility of calcium and phosphate ions from calcium phosphate salts; type: physicochemical
[3] = pH buffering potential of calcium salts; type: physicochemical
[4] = equilibrium solubility of the salt

Compound	Average Mineral Mass [1]	Average Explant Mass [1]	Average Histology Score [0-5] [1]	Explant mass, Direct Comparison Averages [1]	Mineral mass, Direct Comparison Average [1]	Histology score, Direct Comparison Averages [0-5] [1]	improvement in histological score ([1]; intra-animal, relative to collagen control)	bone quality and maturity in histological sections [1]	Explant mass, Direct Comparison Δwt. % [1]	Histology score, Direct Comparison [%] [1]	Mineral mass, Direct Comparison Δwt. % [1]	Explant mass, Direct Comparison Δwt. % ([1]; listed as 2CaO.P2O5)	Mineral mass, Direct Comparison Δwt. % ([1]; listed as 2CaO.P2O5)	effect on explant and mineral mass [1]	histological score / osteoinductive performance, statistical comparison ([1]; α<0.05)	Insoluble fraction [200 mg/cc] ([2]; 200 mg/cc)	Equilibrium [Ca^2+] [2, 4]	Equilibrium [PO4^3−] [2, 4]	pH (buffering potential of the salt) [3]	pH (buffering potential of the salt) ([3]; listed as Hydroxyapatites)
O=P([O-])([O-])OP(=O)([O-])[O-].[Ca+2].[Ca+2] [2CaO•P2O5•2H2O (CP), calcium pyrophosphate]	20.8 mg	126.2 mg	2.3	170.3 mg	31.5 mg	2.3	+163 wt. %	comparatively reduced in maturity but were greater than control samples	+99.6% wt. %	+11.1%	+163.0% wt. %	+99.6 wt. %	+263 wt. %	appreciably enhanced; also recorded: significantly enhanced explant and mineral mass values	Statistically superior improvements in histological score	–	–	–	–	–
O=P([O-])([O-])[O-].O=P([O-])([O-])[O-].[Ca+2].[Ca+2].[Ca+2] [3CaO•P2O5 (α-TCP), tricalcium phosphate]	6.5 mg	39.5 mg	1.1	58.7 mg	9.4 mg	1.3	–	–	−42.9% wt. %	−35.1%	−28.3% wt. %	–	–	–	–	–	–	–	–	–
O=P([O-])([O-])[O-].O=P([O-])([O-])[O-].[Ca+2].[Ca+2].[Ca+2] [3CaO•P2O5 (β-TCP), tricalcium phosphate]	8.1 mg	80.1 mg	1.3	71.6 mg	5.7 mg	1.3	–	–	−26.3% wt. %	−23.9%	−31.6% wt. %	–	–	–	–	–	–	–	–	–
O=C([O-])[O-].[Ca+2] [CaCO3 (aragonite), calcium carbonate]	10.4 mg	69.4 mg	1.0	88.6 mg	14.5 mg	1.0	–	–	−27.3% wt. %	−63.9%	+3.8% wt. %	–	–	–	–	–	–	–	–	–
O=C([O-])[O-].[Ca+2] [CaCO3 (calcite), calcium carbonate]	7.9 mg	67.4 mg	1.0	73.1 mg	8.1 mg	1.0	–	–	−28.0% wt. %	−58.3%	−3.2% wt. %	–	–	–	–	–	–	–	–	–
O=C([O-])[O-].[Ca+2] [calcium carbonates, calcium carbonate]	–	–	–	–	–	–	–	comparatively reduced	–	–	–	–	–	–	–	–	–	–	–	–
hydroxyapatite [3.33CaO.P2O5(OH)2 (Calcitek)]	–	–	–	–	–	–	–	–	+44.1 wt. %	–	+279.6 wt. %	–	–	–	–	–	–	–	–	–
hydroxyapatite [3.33CaO•P2O5 (HA-am)]	26.5 mg and 29.4 mg	129.9 mg and 117.9 mg	1.3 and 1.4	120.3 mg and 140.6 mg	27.1 mg and 30.4 mg	1.2 and 1.7	–	–	–	–	–	–	–	–	–	–	–	–	–	–
hydroxyapatite [3.33CaO•P2O5 (HA-px)]	19.8 mg	113.5 mg	1.4	124.7 mg	21.9 mg	2.0	–	–	+4.5% wt. %	−26.7%	+74.3% wt. %	–	–	–	–	–	–	–	–	–
hydroxyapatite [Ca5(PO4)3(OH) (HA)]	–	–	–	–	–	–	–	negative effect on bone ossicle maturation; also recorded: comparatively reduced	–	–	–	–	–	appreciably enhanced	–	99.9999 wt. %	2.2 µM	1.3 µM	~8.5 and ~9	~8
